Reference: patent publication US6670446B1, “N1 modified glycopeptides” (Eli Lilly and Company, priority 1998, dated 2003)

Columns and labels:
Format in all cases: cell-based
[1] = test system: Resistant Enterococcus faecium and faecalis; assay: MIC, standard broth micro-dilution assay, Resistant; conditions: geometric mean of 4-6 isolates
Experimental: (§1) The antibacterial efficacy of the present compounds is illustrated by Table III. The minimal inhibitory concentrations (MICs) were determined using a standard broth micro-dilution assay.

[2] = test system: Sensitive Enterococcus faecium and faecalis; assay: MIC, standard broth micro-dilution assay, Sensitive; conditions: geometric mean of 4-6 isolates
Experimental: as §1

[3] = test system: Staphylococcus aureus 446; assay: MIC, standard broth micro-dilution assay, SA 446
Experimental: as §1

[4] = test system: Staphylococcus aureus 489; assay: MIC, standard broth micro-dilution assay, SA 489
Experimental: as §1

[5] = test system: Staphylococcus aureus 447; assay: MIC, standard broth micro-dilution assay, SA 447
Experimental: as §1

[6] = test system: Staphylococcus aureus X400; assay: MIC, standard broth micro-dilution assay, SA X400
Experimental: as §1

[7] = test system: Staphylococcus aureus X778; assay: MIC, standard broth micro-dilution assay, SA X778
Experimental: as §1

[8] = test system: Staphylococcus aureus 491; assay: MIC, standard broth micro-dilution assay, SA 491
Experimental: as §1

[9] = test system: Staphylococcus aureus S13E
Experimental: as §1

[10] = test system: Staphylococcus aureus SA1199; assay: MIC, standard broth micro-dilution assay, SA 1199
Experimental: as §1

[11] = test system: Staphylococcus aureus SA1199A; assay: MIC, standard broth micro-dilution assay, SA 1199A
Experimental: as §1

[12] = test system: Staphylococcus haemolyticus 105; assay: MIC, standard broth micro-dilution assay, SH 105
Experimental: as §1

[13] = test system: Staphylococcus haemolyticus 415; assay: MIC, standard broth micro-dilution assay, SH 415
Experimental: as §1

[14] = test system: Staphylococcus epidermidis 270; assay: MIC, standard broth micro-dilution assay, SE 270
Experimental: as §1

Enterococcus faecium 180 = assay: MIC, standard broth micro-dilution assay, EF 180
Experimental: as §1

[15] = test system: Enterococcus faecium 180-1; assay: MIC, standard broth micro-dilution assay, EF 180-1
Experimental: as §1

[16] = test system: Enterococcus faecalis 2041; assay: MIC, standard broth micro-dilution assay, EF 2041
Experimental: as §1

[17] = test system: Enterococcus faecalis 276; assay: MIC, standard broth micro-dilution assay, EF 276
Experimental: as §1

[18] = test system: Enterococcus gallinarum 245; assay: MIC, standard broth micro-dilution assay, EG 245
Experimental: as §1

[19] = test system: Haemophilus influenzae RD; assay: MIC, standard broth micro-dilution assay, HFRD
Experimental: as §1

Escherichia coli EC14 = assay: MIC, standard broth micro-dilution assay, EC 14
Experimental: as §1

Structure (SMILES) | minimal inhibitory concentration (MIC), Resistant [1] | minimal inhibitory concentration (MIC), Sensitive [2] | minimal inhibitory concentration (MIC), SA 446 [3] | minimal inhibitory concentration (MIC), SA 489 [4] | minimal inhibitory concentration (MIC), SA 447 [5] | minimal inhibitory concentration (MIC), SA X400 [6] | minimal inhibitory concentration (MIC), SA X778 [7] | minimal inhibitory concentration (MIC), SA 491 [8] | minimal inhibitory concentration (MIC), SA S13E [9] | minimal inhibitory concentration (MIC), SA 1199 [10] | minimal inhibitory concentration (MIC), SA 1199A [11] | minimal inhibitory concentration (MIC), SH 105 [12] | minimal inhibitory concentration (MIC), SH 415 [13] | minimal inhibitory concentration (MIC), SE 270 [14] | minimal inhibitory concentration (MIC), EF 180 (Enterococcus faecium 180) | minimal inhibitory concentration (MIC), EF 180-1 [15] | minimal inhibitory concentration (MIC), EF 2041 [16] | minimal inhibitory concentration (MIC), EF 276 [17] | minimal inhibitory concentration (MIC), EG 245 [18] | minimal inhibitory concentration (MIC), HFRD [19] | further results
CC1OC(OC2c3ccc(c(Cl)c3)Oc3cc4cc(c3OC3OC(CO)C(O)C(O)C3OC3CC(C)(NCc5ccc(-c6ccccc6)cc5)C(O)C(C)O3)Oc3ccc(cc3Cl)C(O)C(NC(=O)C(CCCCNC(=O)OC(C)(C)C)NC(=O)OC(C)(C)C)C(=O)NC(CC(N)=O)C(=O)NC4C(=O)NC3C(=O)NC2C(=O)NC(C(=O)O)c2cc(O)cc(O)c2-c2cc3ccc2O)CC(C)(N)C1O [Example 30, N^1-(N,N′-DIBOC-L-lysine) derivative of N^DISACC-(p-phenylbenzyl)desleucylA82846B] | 38 | 2.3 | 8 | 1 | 2 | 2 | 1 | 2 | 2 | 2 | 1 | 2 | 2 | 1 | 8 | 0.5 | 1 | 2 | 2 | >64 | minimal inhibitory concentration (MIC), EC 14 (Escherichia coli EC14): >64
CC1OC(OC2c3ccc(c(Cl)c3)Oc3cc4cc(c3OC3OC(CO)C(O)C(O)C3OC3CC(C)(NCc5ccc(-c6ccccc6)cc5)C(O)C(C)O3)Oc3ccc(cc3Cl)C(O)C(NC(=O)C(N)CCCCN)C(=O)NC(CC(N)=O)C(=O)NC4C(=O)NC3C(=O)NC2C(=O)NC(C(=O)O)c2cc(O)cc(O)c2-c2cc3ccc2O)CC(C)(N)C1O [Example 31, N^1-L-lysine derivative of N^DISACC-(p-phenylbenzyl)desleucylA82846B] | 5.6 | 0.33 | 0.5 | 2 | 2 | 2 | 0.5 | 0.5 | 1 | 0.5 | 0.25 | 0.5 | 2 | 0.5 | 1 | 0.25 | 1 | 2 | 0.5 | >64 | minimal inhibitory concentration (MIC), EC 14 (Escherichia coli EC14): >64
CC1OC(OC2c3ccc(c(Cl)c3)Oc3cc4cc(c3OC3OC(CO)C(O)C(O)C3OC3CC(C)(NCc5ccc(-c6ccccc6)cc5)C(O)C(C)O3)Oc3ccc(cc3Cl)C(O)C(NC(=O)C3CCCN3)C(=O)NC(CC(N)=O)C(=O)NC4C(=O)NC3C(=O)NC2C(=O)NC(C(=O)O)c2cc(O)cc(O)c2-c2cc3ccc2O)CC(C)(N)C1O [Example 32, N^1-L-proline derivative of N^DISACC-(p-phenylbenzyl)desleucylA82846B] | 16 | 0.76 | 1 | 1 | 1 | 2 | 0.5 | 0.125 | 0.25 | 0.25 | ≦.06 | 0.125 | 0.5 | 0.125 | 2 | 0.125 | 1 | 2 | 0.5 | >64 | minimal inhibitory concentration (MIC), EC 14 (Escherichia coli EC14): >64
CC1OC(OC2c3ccc(c(Cl)c3)Oc3cc4cc(c3OC3OC(CO)C(O)C(O)C3OC3CC(C)(NCc5ccc(-c6ccccc6)cc5)C(O)C(C)O3)Oc3ccc(cc3Cl)C(O)C(NC(=O)C(N)Cc3ccc(Cl)cc3)C(=O)NC(CC(N)=O)C(=O)NC4C(=O)NC3C(=O)NC2C(=O)NC(C(=O)O)c2cc(O)cc(O)c2-c2cc3ccc2O)CC(C)(N)C1O [Example 33, N^1-[L-3-(p-chlorophenyl)alanine] derivative of N^DISACC-(p-phenylbenzyl)desleucylA82846B] | 27 | 2.6 | 1 | 2 | 1 | 1 | 1 | 0.5 | 1 | 0.5 | 0.25 | 0.5 | 0.5 | 0.25 | 4 | 0.5 | 2 | 4 | 1 | >64 | minimal inhibitory concentration (MIC), EC 14 (Escherichia coli EC14): >64
CC(C)CC(NCc1ccc(-c2ccccc2)cc1)C(=O)NC1C(=O)NC(CC(N)=O)C(=O)NC2C(=O)NC3C(=O)NC(C(=O)NC(C(=O)O)c4cc(O)cc(O)c4-c4cc3ccc4O)C(OC3CC(C)(N)C(O)C(C)O3)c3ccc(c(Cl)c3)Oc3cc2cc(c3OC2OC(CO)C(O)C(O)C2OC2CC(C)(N)C(O)C(C)O2)Oc2ccc(cc2Cl)C1O [Example 34, N^1-[N-(p-phenylbenzyl)-D-leucine] derivative of desleucylA82846B] | 38 | 0.44 | 0.125 | ≦.06 | 0.125 | ≦.06 | ≦.06 | ≦.06 | ≦.06 | 0.125 | ≦.06 | ≦.06 | 4 | 0.25 | 2 | ≦.06 | 0.25 | ≦.06 | ≦.06 | 64 | minimal inhibitory concentration (MIC), EC 14 (Escherichia coli EC14): >64
CC(C)CC(NCc1ccc(-c2ccccc2)cc1)C(=O)NC1C(=O)NC(CC(N)=O)C(=O)NC2C(=O)NC3C(=O)NC(C(=O)NC(C(=O)O)c4cc(O)cc(O)c4-c4cc3ccc4O)C(OC3CC(C)(N)C(O)C(C)O3)c3ccc(c(Cl)c3)Oc3cc2cc(c3OC2OC(CO)C(O)C(O)C2OC2CC(C)(NCc3ccc(-c4ccccc4)cc3)C(O)C(C)O2)Oc2ccc(cc2Cl)C1O [Example 35, N^1-[N-(p-phenylbenzyl)-D-leucine] derivative of N^DISACC-(p-phenylbenzyl)desleucylA82846B] | 4.8 | 0.66 | 2 | 2 | 2 | 2 | 1 | 1 | 2 | 2 | 1 | 0.5 | 2 | 1 | 1 | 0.25 | 0.5 | 1 | 1 | >64 | minimal inhibitory concentration (MIC), EC 14 (Escherichia coli EC14): >64
